Reference: US10328143B2, “Hemagglutinin-binding peptide” (priority 2014, dated 2019)

Tests used:
[1] = test system: highly pathogenic avian influenza virus H5N1 A/whooper swan/Hokkaido/1/08 (5×MLD50); set-up: species or system mice; details: mouse, in vivo
[2] = test system: influenza virus H5N1 Vac-3; type: cell-based; details: for anti-viral effect compared with zanamivir (Relenza): 0.01, 0.1, 1 μM
[3] = test system: influenza virus H1N1-pdm 2619; type: cell-based
[4] = test system: highly pathogenic avian influenza virus H5N1: A/ws/Hokkaido/1/08 (clade 2.3), A/ws/Mongolia/3/05 (clade 2.2), A/Vietnam/UT3040/04 (clade 1); type: cell-based
[5] = test system: influenza virus H2N2-Adachi strain; type: cell-based

Compound	lethality [1]	treatment effect [1]	anti-viral effect compared with positive control iHA-24 [2]	anti-viral effect compared with zanamivir (Relenza) [2]	anti-viral effect compared with zanamivir (Relenza) [3]	lethal rate [1]	effect compared with iHA-24 [4]	effect compared with zanamivir [4]	anti-viral effect compared with zanamivir (Relenza) [5]	number of plaques [5]
CC(=O)N[C@H]1[C@H]([C@H](O)[C@H](O)CO)OC(C(=O)O)=C[C@@H]1N=C(N)N [zanamivir]	a dead individual is found	no treatment effect is obtained	–	–	–	–	–	–	–	–
Cyclo(Ac-Trp-Ser-MePhe-MeGly-His-Val-His-Tyr-Ser-Val-MePhe-Asn-MeAla-Val-Cys)-amide [iHA-102]	–	–	markedly higher than that of the peptide iHA-24	comparable to that of zanamivir	–	–	–	–	–	–
Cyclo(Ac-Trp-Thr-MeGly-Asp-MePhe-MePhe-Ser-MeSer-His-Tyr-Thr-Val-Pro-Arg-Cys)-amide [iHA-100]	–	–	markedly higher than that of the peptide iHA-24	comparable to that of zanamivir	comparable to that of zanamivir	a decrease in lethal rate is observed	markedly higher than that of iHA-24	on the same level as that of zanamivir	comparable to that of zanamivir	dose-dependently decreased the number of plaques
Cyclo(Ac-Trp-Thr-MeGly-Thr-His-Val-Arg-Tyr-Thr-Val-MePhe-Asn-MeAla-Ser-Cys)-amide [iHA-103]	–	–	markedly higher than that of the peptide iHA-24	comparable to that of zanamivir	–	–	–	–	–	–
